Values quoted from earlier work in patent US20060165781A1, “Orally disintegrating tablets and process for obtaining them” (priority 2002, published 2006).

Settings: 5 g in 150 mL of water at 20° C.

SMILES: OC[C@@H](O)[C@@H](O)[C@H](O)[C@H](O)CO [Spray-dried mannitol, mannitol]
- Time to dissolve in water: approximately 5 s
